Target: T1, S1P1 receptor (Homo sapiens, UniProt P21453)
T1 construct: expressed in transfected cells; membrane preparation
Test: 35S-GTPγS binding assay using membrane preparation of CHO cell stably expressing S1P1 receptor
Assay type: biochemical
Settings: agonist activity
Description: ^35s-GTPγS binding assay using membrane preparation of CHO cell stably expressing S1P1 receptor
A G protein-GTPγS binding test associated with a ligand was performed by using a membrane preparation which was obtained from a CHO cell which stably overexpressed S1P1 receptor. In a 96 well-micro-titer dish, the produced membrane protein and a compound which was diluted with a solvent such as DMSO or sphingosine-1-phosphate in various concentrations was incubated in a solution containing 20 mM of Tris-Cl (pH7.5), 100 mM of NaCl, 10 mM of MgCl2, 5μM of GDP, 0.1% of BSA, and […] of ^35s-GTPγS (specific radioactivity, 1250 Ci mmol). The binding was performed for 1 or more hours at room temperature, and the membrane was harvested on a GF/B filter plate by using a Millipore's MultiScreen Separation System to end the binding. After the filter plate was dried for 30 or more minutes, 25 μL of MicroScint-20 was added to each well, and the binding was measured by using the TopCount.
For the agonist activity of compound, the value of a well which a solvent was added to was set to a control value and compared with an increment of an evaluation compound-added well, so that the increment of each concentration of the compound was obtained. EC50 value was calculated under the definition that the value is an agonist concentration required to provide 50% of the maximum increment thereof. […]

T1 sequence (P21453 whole entry): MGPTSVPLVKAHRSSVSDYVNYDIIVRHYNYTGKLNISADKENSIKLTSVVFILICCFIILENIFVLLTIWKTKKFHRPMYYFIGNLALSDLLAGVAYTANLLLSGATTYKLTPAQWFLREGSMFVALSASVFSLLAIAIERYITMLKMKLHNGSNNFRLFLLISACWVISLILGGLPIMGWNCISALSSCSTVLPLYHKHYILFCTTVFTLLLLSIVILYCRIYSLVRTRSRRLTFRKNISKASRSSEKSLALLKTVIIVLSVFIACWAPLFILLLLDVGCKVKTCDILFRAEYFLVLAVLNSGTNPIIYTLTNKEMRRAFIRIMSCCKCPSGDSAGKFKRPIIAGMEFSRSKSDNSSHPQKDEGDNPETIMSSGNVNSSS

Compound	EC50 [nM]
O=C(O)C1CCC(NCc2ccc(OCc3cc(-c4ccccc4)c(C(F)(F)F)s3)cc2)CC1 (centres unmarked) [Example 9]	161
O=C(O)[C@H]1CC[C@@H](NCc2ccc(OCc3cc(-c4ccccc4)c(C(F)(F)F)s3)cc2)CC1 [Example 13]	234
O=C(O)[C@@H]1C[C@@H](O)[C@H](NCc2ccc(OCc3cc(-c4ccccc4)c(C(F)(F)F)s3)cc2)C1 [Example 15]	121
O=C(O)[C@@H]1C[C@H](O)[C@H](NCc2ccc(OCc3cc(-c4ccccc4)c(C(F)(F)F)s3)cc2)C1 [Example 16]	94
O=C(O)[C@H]1CC[C@@H](NCc2ccc(OCc3cc(-c4ccccc4)c(C(F)(F)F)s3)cc2)C1 [Example 18]	251
O=C(O)[C@@H]1C[C@H](NCc2ccc(OCc3cc(-c4ccccc4)c(C(F)(F)F)s3)cc2)CN1 [Example 22]	268
O=C(O)[C@@H]1CC=C[C@@H](NCc2ccc(OCc3cc(-c4ccccc4)c(C(F)(F)F)s3)cc2)C1 [Example 24]	87
O=C(O)C(CO)NCc1ccc(OCc2cc(-c3ccccc3)c(C(F)(F)F)s2)cc1 (centres unmarked) [Example 27]	370
O=C(O)[C@@H]1CC[C@H](NCc2ccc3cnn(Cc4ccc(-c5ccccc5)cc4)c3c2)C1 [Example 35, (1R,3s)-3-N-({1-(4-phenylbenzyl)-1H-indazol-6-yl)methyl}aminocyclopentane carboxylic acid]	160
O=C(O)CCNCc1ccc(OCc2ccc3c(cnn3Cc3ccccc3)c2)cc1 [Example 37, 3-(4-(1-benzyl-1H-indazol-5-yl)methoxy)benzylaminopropanoic acid]	64
O=C(O)CCNCc1ccc(-c2noc(-c3ccc(-c4ncccc4C(F)(F)F)cc3)n2)cc1 [Example 41]	25
CC(C)/C=C/CCCCc1nc(-c2ccc(CNCCC(=O)O)cc2)no1 [Example 43]	46
O=C(O)CCNCc1ccc(-c2noc(-c3cnc(OC4CCCC4)c(Cl)c3)n2)cc1 [Example 44]	13
O=C(O)CCNCc1ccc(-c2noc(-c3ccc(OC4CCCCC4)c(C(F)(F)F)c3)n2)cc1 [Example 45]	1.6
O=C(O)CCNCc1ccc(-c2noc(-c3ccc(-c4ccccc4)cc3)n2)cc1 [Example 48]	3
CC(C)Oc1ccc(-c2nc(-c3ccc(CNCCC(=O)O)cc3)no2)cc1C(F)(F)F [Example 49]	0.6
O=C(O)CCNCc1ccc(-c2noc(-c3ccc(-c4ccccn4)cc3)n2)cc1 [Example 50]	42
Cc1cc(-c2ccccc2)ccc1-c1nc(-c2ccc(CNCCC(=O)O)cc2)no1 [Example 55]	34
O=C(O)CCNCc1ccc(-c2noc(-c3ccc(-c4ccc(C(F)(F)F)cc4)cc3)n2)cc1 [Example 57]	69
Cc1cc(-c2ccccc2F)ccc1-c1nc(-c2ccc(CNCCC(=O)O)cc2)no1 [Example 58]	56
O=C(O)CCNCc1ccc(-c2noc(-c3ccc(-c4ccccc4C(F)(F)F)cc3)n2)cc1 [Example 62]	0.4
O=C(O)CCNCc1ccc(-c2noc(-c3ccc(-c4ccccc4F)cc3)n2)cc1 [Example 67]	0.8

Compound	EC50 [nM]
O=C(O)CCNCc1ccc(-c2noc(-c3ccc(-c4cccc(F)c4)cc3)n2)cc1 [Example 68]	5.5
O=C(O)CCNCc1ccc(-c2noc(-c3ccc(-c4ccc(F)cc4)cc3)n2)cc1 [Example 69]	14
Cc1cc(-c2nc(-c3ccc(CNCCC(=O)O)cc3)no2)ccc1-c1cccc(F)c1 [Example 74]	0.12
Cc1cc(-c2nc(-c3ccc(CNCCC(=O)O)cc3)no2)ccc1-c1ccc(F)cc1 [Example 75]	0.34
Cc1cc(-c2nc(-c3ccc(CNCCC(=O)O)cc3)no2)ccc1-c1cccc(C(F)(F)F)c1 [Example 76]	0.35
Cc1cc(-c2nc(-c3ccc(CNCCC(=O)O)cc3)no2)ccc1-c1ccc(C(F)(F)F)cc1 [Example 77]	13
CC(C)Sc1ccc(-c2nc(-c3ccc(CNCCC(=O)O)cc3)no2)cc1 [Example 83]	11
Cc1cc(-c2nc(-c3ccc(CNCCC(=O)O)cc3)no2)ccc1-c1ccccc1C(F)(F)F [Example 86]	0.31
N#Cc1ccccc1-c1ccc(-c2nc(-c3ccc(CNCCC(=O)O)cc3)no2)c(F)c1 [Example 88]	10
N#Cc1cc(-c2nc(-c3ccc(CNCCC(=O)O)cc3)no2)ccc1-c1ccccc1F [Example 89]	0.17
Cc1cc(-c2nc(-c3ccc(CNCCC(=O)O)cc3)no2)ccc1C1CCCC1 [Example 91]	0.25
Cc1cc(-c2nc(-c3ccc(CNCCC(=O)O)cc3)no2)ccc1C1CCCCC1 [Example 92]	0.2
O=C(O)CCNCc1ccc(-c2noc(-c3ccc(-c4ccccc4)cn3)n2)cc1 [Example 95]	25
O=C(O)CCNCc1ccc(-c2noc(-c3ccc(-c4ccccc4F)c(C(F)(F)F)c3)n2)cc1 [Example 98]	0.37
O=C(O)CCNCc1ccc(-c2noc(-c3ccc(-c4ccccc4C(F)(F)F)c(C(F)(F)F)c3)n2)cc1 [Example 99]	1.3
O=C(O)CCNCc1ccc(-c2noc(-c3ccc(-c4ccccc4OC(F)(F)F)c(C(F)(F)F)c3)n2)cc1 [Example 100]	1.7
CCc1cc(-c2nc(-c3ccc(CNCCC(=O)O)cc3)no2)ccc1-c1ccccc1 [Example 101]	0.41
CCc1cc(-c2nc(-c3ccc(CNCCC(=O)O)cc3)no2)ccc1-c1ccccc1C#N [Example 102]	0.41
O=C(O)CCNCc1ccc(-c2noc(-c3ccc(/C=C/C(F)(F)F)cc3)n2)cc1 [Example 103]	3.9
CCc1cc(-c2nc(-c3ccc(CNCCC(=O)O)cc3)no2)ccc1-c1ccccc1F [Example 108]	0.29
Cc1ccccc1-c1ccc(-c2nc(-c3ccc(CNCCC(=O)O)cc3)no2)cc1C [Example 110]	0.35
Cc1cc(-c2nc(-c3ccc(CNCCC(=O)O)cc3)no2)ccc1-c1ccccc1Cl [Example 111]	0.17

Compound	EC50 [nM]
Cc1cc(-c2nc(-c3ccc(CNCCC(=O)O)cc3)no2)ccc1-c1cccs1 [Example 112]	0.34
Cc1cc(-c2nc(-c3ccc(CNCCC(=O)O)cc3)no2)ccc1-c1ccsc1 [Example 113]	0.07
Cc1cc(-c2nc(-c3ccc(CNCCC(=O)O)cc3)no2)ccc1-c1ccccc1OC(F)(F)F [Example 114]	0.19
Cc1cc(-c2nc(-c3ccc(CNCCC(=O)O)cc3)no2)ccc1-c1cscc1C [Example 115]	0.04
Cc1cc(-c2nc(-c3ccc(CNCCC(=O)O)cc3)no2)ccc1-c1ccco1 [Example 116]	1.5
Cc1cc(-c2nc(-c3ccc(CNCCC(=O)O)cc3)no2)ccc1-c1ccccc1C(C)C [Example 118]	0.45
O=C(O)CCNCc1ccc(-c2noc(-c3ccc(-c4ccccc4F)s3)n2)cc1 [Example 120]	3.6
O=C(O)CCNCc1ccc(-c2noc(-c3cc(-c4ccccc4)c(C(F)(F)F)s3)n2)s1 [Example 124]	0.2
CC(C)Cc1ccc(-c2nc(-c3ccc(CNCCC(=O)O)s3)no2)cc1 [Example 128]	16
O=C(O)[C@H]1C[C@H](NCc2ccc(-c3noc(-c4cc(-c5ccccc5)c(C(F)(F)F)s4)n3)cc2)C1 [Example 130]	4.5
Cc1cc(-c2nc(-c3ccc(CN[C@H]4C[C@H](C(=O)O)C4)cc3)no2)ccc1-c1ccccc1 [Example 134]	1.2
CC(C)COc1ccc(-c2nc(-c3ccc(CN[C@H]4C[C@H](C(=O)O)C4)cc3)no2)cc1C(F)(F)F [Example 136]	4
O=C(O)[C@@H]1CC[C@@H](NCc2ccc(-c3noc(-c4cc(-c5ccccc5)c(C(F)(F)F)s4)n3)cc2)C1 [Example 138]	21
CC(C)Cc1ccc(-c2nc(-c3ccc(CN[C@@H]4CC[C@@H](C(=O)O)C4)cc3)no2)cc1 [Example 139]	23
Cc1cc(-c2nc(-c3ccc(CN[C@@H]4CC[C@@H](C(=O)O)C4)cc3)no2)ccc1-c1ccccc1 [Example 142]	6.7
Cc1cc(CNCCC(=O)O)ccc1-c1noc(-c2ccc(CC(C)C)cc2)n1 [Example 144]	0.27
Cc1cc(CN[C@H]2C[C@H](C(=O)O)C2)ccc1-c1noc(-c2ccc(CC(C)C)cc2)n1 [Example 146, (1R,3R)-3-(4-(5-(4-isobutylphenyl)-1,2,4,-oxadiazol-3-yl)-3-methylbenzylamino)cyclobutanecarboxylic acid]	4.5
O=C(O)CCNCc1ccc(OCc2cc(-c3ccccc3)c(C(F)(F)F)s2)cc1Cl [Example 149]	4.5
COc1cc(OCc2cc(-c3ccccc3)c(C(F)(F)F)s2)ccc1CNCCC(=O)O [Example 150]	37
O=C(O)CCNCc1ccc(OCc2cc(-c3ccccc3)c(C(F)(F)F)s2)c(Br)c1 [Example 151]	27
O=C(O)CCNCc1ccc(OCc2cc(-c3ccccc3)c(C(F)(F)F)s2)c(F)c1 [Example 152]	6.4
